Measured values as given in patent publication US6815464B2, “Carbamate compounds for use in the treatment of pain” (Ortho-McNeil Pharmaceutical, Inc., priority 2001, dated 2004).
Marks after values point to notes of the source that are not given here.

Tested on: sciatic nerve loose ligation in rats
Assay: Bennett model (Chronic Constrictive Injury), thermal stimulation, paw-withdrawal latency
Type: in vivo
Settings: rat; for Antihyperalgesic Effectiveness (% Effective): vs vehicle control; for anti-hyperalgesic effect against a thermal stimulation challenge: p.o., summary statement in words
Text: Bennett Model (Chronic Constrictive Injury)
The Bennett model consists of sciatic nerve loose ligation in rats (Bennett G J and Xie Y K, A peripheral mononeuropathy in rat that produces disorders of pain sensation like those seen in man, Pain, 1988, 33, 87-107). Although the pharmacological profile of the spontaneous pain, protective posture and allodynia (minor) is similar to that of clinical neuropathic pain, the loose chronic ligature of sciatic nerve in the Bennett model causes greater thermal hyperalgesia than mechanical allodynia due to its inflammatory mechanism. The loose ligation causes the constriction/swelling followed by inflammation at the ligation site, a condition most commonly associated with various types of pain. The behavioral response to the ligature is one of hyperalgesia. Thus, anti-hyperalgesia reduces chronic signs of pain hypersensitivity. Therefore, the Bennett model is used to evaluate antinociceptive pain (Cui J G, Possible role of inflammatory mediators in tactile hypersensitivity in rat models of mononeuropathy, Pain, 2000, 88 (3), 239-248; Lovell J A, Changes in Spinal Serotonin Turnover Mediate Age-Related Differences in the Behavioral Manifestations of Peripheral Nerve Injury, Pharmacol. Biochem. Behav., 2000, 66 (4), 873-878; Yasuda T, The novel analgesic compound OT-7100[5-n-butyl-7-(3,4,5-trimethoxybenzoylamino)pyrazolo[1,5a]pyrimidine] attenuates mechanical nociceptive responses in animal models of acute and peripheral neuropathic hyperalgesia, J. Pharmacol., 1999, 79 (1), 65-73; Toda K, Antinociceptive effects of neurotropin in a rat model of painful peripheral mononeuropathy, Life Sci., 1998, 62 (10), 913-921; Munglani R, Neuropeptide changes persist in spinal cord despite resolving hyperalgesia in a rat model of mononeuropathy, Brain Res., 1996, 743, 1 (2), 102-108).
[…] The anti-hyperalgesia effect was assessed at 30, 60, and 90 minutes after the oral administration.
Rats (180-220 g body weight) were anesthetized (sodium pentobarbital, 40 mg/kg, ip) and an incision was made at the mid-thigh level to expose the common left sciatic nerve. Four ligatures spaced 1 mm apart were loosely tied around the sciatic nerve. The wound was then sutured. The rats received an i.m. injection of 50,000 IU Penicillin and were allowed to recover after this procedure. At least one week after the surgery, when the chronic state was fully established, rats were consecutively submitted to thermal stimulation of both the non-lesioned and the lesioned hind-paws. The apparatus (UgoBasil, Reference: 7371) consists of 6 individual Plexiglas boxes (17×13×13 cm) placed upon an elevated glass floor. The rat was placed in the box and allowed to habituate for 10 minutes. A mobile infrared radiant source (setting 20) was then focused under the non-lesioned and lesioned hind-paws and the paw-withdrawal latencies in seconds were automatically recorded. The test was performed in a blinded fashion. The increased latency in treated animals as compared to control animals (those receiving only vehicle) was expressed as % of effectiveness of the drug. Data were analyzed by comparing the treated lesion group with controls using unpaired Student's t-test.

[1] = 10 mg/kg p.o., 60 min after administration
[2] = 10 mg/kg p.o., 90 min after administration
[3] = 30 mg/kg p.o., 30 min after administration
[4] = 30 mg/kg p.o., 60 min after administration
[5] = 30 mg/kg p.o., 90 min after administration
[6] = 300 mg/kg p.o., 30 min after administration
[7] = 300 mg/kg p.o., 60 min after administration
[8] = 300 mg/kg p.o., 90 min after administration

| Structure (SMILES) | Antihyperalgesic Effectiveness (% Effective) [1] [%] | Antihyperalgesic Effectiveness (% Effective) [2] [%] | Antihyperalgesic Effectiveness (% Effective) [3] [%] | Antihyperalgesic Effectiveness (% Effective) [4] | Antihyperalgesic Effectiveness (% Effective) [5] | Antihyperalgesic Effectiveness (% Effective) [6] [%] | Antihyperalgesic Effectiveness (% Effective) [7] | Antihyperalgesic Effectiveness (% Effective) [8] [%] | anti-hyperalgesic effect against a thermal stimulation challenge |
| --- | --- | --- | --- | --- | --- | --- | --- | --- | --- |
| NC(=O)OC[C@@H](O)c1ccccc1Cl [Formula (Ib)] | 79 | 53 | 59 | 109% | 107% | 43 | 314** % | 151 | anti-hyperalgesic effect |
| NC(=O)OC[C@H](OC(N)=O)c1ccccc1Cl [Formula (IIb)] | 121 | 50 | 61 | 318** % | 182** % | 48 | 198** % | 69 | anti-hyperalgesic effect |
